“And” between values parts separate entries of the source, which are not always exact repeats. Equal values may be shown once.
How the values were obtained:
[1] = target: exonuclease-inactivated E. faecium PolC (Exo^null, PolC^D431A+E433A) (Enterococcus faecium, UniProt A0A9X4B319, D429A/E431A); assay: Real-time DNA primer extension assay; type: biochemical; conditions: for IC50: n = 3, ± SEM
Description: Polymerase activity was monitored in real-time[31],[32] with a 42-nt long 5’ carboxyfluorescein-labelled DNA oligonucleotide template strand (DNASP8_42) annealed to a 30-nt primer oligonucleotide (oMU014). Polymerase activity in this assay is monitored by measuring fluorescence quenching of the labelled DNA template as a result of primer extension by PolC (for details see Supplementary Fig. 1b, c). Both primers were HPLC purified. Primer extension assays were performed in Reaction Buffer (see Gel-based polymerase and exonuclease assays) supplemented with 0.5 mg/mL BSA, 0.05% Tween20 and 25 uM of each dNTP (SRB) in 384-well Black Round Bottom plates (Corning 4514). The polymerase was diluted in the SRB and incubated for at least 5 min in the presence of inhibitor or solvent, with a final solvent concentration of 1%. The reaction was initiated by the addition of an equal volume of DNA substrate in SRB as described below. Fluorescence emission data was collected with a BMG Labtech PHERAstar FSX reader for 30 min at room temperature.
Compounds were dispensed with an Echo acoustic liquid handler (Beckman Coulter). All compounds were dissolved to 1 mM and 10 mM stocks in 100% DMSO and transferred to Echo LDV or PP source plates (Labcyte, Inc., CA), then dispensed to 384-well plates with a Labcyte Echo550 or Echo650 acoustic dispenser at volumes of 2.5 to 100 nL per well. […] A Mantis microfluidic liquid dispenser (Formulatrix) was used to dispense 5 µL polymerase and 5 µL substrate DNA (individually diluted in SRB) per well. […] The final concentration of DNA was 70 nM.
Data were analysed and standard error of the means (SEM) determined in Prism 8.4.2 and 10.2.3 (GraphPad). Raw time-course polymerase activity was plotted against time, with SEM of triplicates determined. The rate of activity (represented by signal quenching) was determined during the first 8 min (linear stage) by calculating the slope of fluorescence intensity change (converted to a positive value) over time (in seconds). The slopes were then normalized to percentage activity (%); per ‘replicate range’, 100% activity was defined as polymerase activity in the absence of inhibitor (polymerase control), and 0% activity was determined in the absence of polymerase (DNA signal; negative control). The SEM was determined between ‘replicate ranges’. The IC50 was determined using the dose-response (inhibition) nonlinear regression ‘[Inhibitor] vs. response (three parameters)’ without constraints.

[2] = system: Clostridioides difficile infection; parameters: method as in PMID 35862742, PMID 35134880; conditions: patients cured of CDI through treatment with IBZ; cited from earlier work
[3] = parameters: method as in PMID 35134880, PMID 32892222; conditions: cited from earlier work
[4] = cited from earlier work
[5] = system: C. difficile strain carrying a F1258L mutation; assay: MIC of C. difficile strain obtained by one-step passage; type: cell-based; conditions: Clostridioides difficile
E. faecium ATCC 700221 = assay: Frequency of resistance (FOR) study; type: cell-based, Enterococcus faecium; conditions: for CFU total count (48h): replicates 1-2; for Number of reduced susceptible colonies: Suppl. Table 2
Description: Strains with reduced susceptibility to ACX compounds were generated by WuXi Apptec on behalf of Acurx Pharmaceuticals, Inc., using E. faecium ATCC 700221 as parental strain.
Agar MICs for the wild-type strain were determined on Blood agar (Huankai). Compounds and linezolid were dissolved in 100% DMSO and vancomycin in ultrapure water. Strains were inoculated onto agar plates, incubated at 37 °C for 20-24 h after which colonies were suspended in sterile 0.9% saline at different bacterial concentrations. 5 μL of bacterial suspensions was individually spotted on agar plates supplemented with compounds at different concentrations, resulting in final concentrations of 10^–1, 10^–2, 10^–3, 10^–4, 10^–5, 10^–6, and 10^–7 per spot. After incubation for 20-24 h, bacterial growth was assessed by visual inspection.
For frequency of resistance (FOR) studies, colonies from the agar plate were suspended into sterile 0.9% saline to get 10^8-10^9 CFU bacterial cells per mL. […] The suspensions were also serially diluted with 0.9% saline and spotted onto agar to determine the actual inoculum. All agar plates were incubated at 37 °C for 48 h. FOR was defined as colony number on each compound-containing plate per CFU number of actual inoculum. Resistant colonies were subcultured on the corresponding compound plates to confirm that colonies were resistant and stable.

[6] = Fig. 1e source data, inhibitor 2.5 uM, replicates 1-3
[7] = Fig. 1e source data, inhibitor 4 uM, replicates 1-3
[8] = Fig. 1e source data, inhibitor 5.75 uM, replicates 1-3
[9] = Fig. 1e source data, inhibitor 8.75 uM, replicates 1-3
[10] = Fig. 1e source data, inhibitor 12.5 uM, replicates 1-3
[11] = Fig. 1e source data, inhibitor 20 uM, replicates 1-3
[12] = Fig. 1e source data, inhibitor 30 uM, replicates 1-3
[13] = Fig. 1e source data, inhibitor 45 uM, replicates 1-3
[14] = Fig. 1e source data, inhibitor 67.5 uM, replicates 1-3
[15] = Fig. 1e source data, inhibitor 100 uM, replicates 1-3
[16] = Fig. 4b source data, PolC (Exonull), inhibitor 1 uM
[17] = Fig. 4b source data, PolC (Exonull), inhibitor 1.75 uM
[18] = Fig. 4b source data, PolC (Exonull), inhibitor 2.5 uM
[19] = Fig. 4b source data, PolC (Exonull), inhibitor 4 uM
[20] = Fig. 4b source data, PolC (Exonull), inhibitor 5.75 uM
[21] = Fig. 4b source data, PolC (Exonull), inhibitor 8.8 uM
[22] = Fig. 4b source data, PolC (Exonull), inhibitor 20 uM
[23] = IC50, Fig. 1e, inhibitor 2.5-100 μM
[24] = IC50 PolC, Fig. 4b, wild-type PolC (exonuclease-inactivated), inhibitor up to 225 μM

| SMILES | rate of activity (slope of fluorescence intensity change over time) [1, 6] | rate of activity (slope of fluorescence intensity change over time) [1, 7] | rate of activity (slope of fluorescence intensity change over time) [1, 8] | rate of activity (slope of fluorescence intensity change over time) [1, 9] | rate of activity (slope of fluorescence intensity change over time) [1, 10] | rate of activity (slope of fluorescence intensity change over time) [1, 11] | rate of activity (slope of fluorescence intensity change over time) [1, 12] | rate of activity (slope of fluorescence intensity change over time) [1, 13] | rate of activity (slope of fluorescence intensity change over time) [1, 14] | rate of activity (slope of fluorescence intensity change over time) [1, 15] | rate of activity (slope of fluorescence intensity change over time) [1, 16] | rate of activity (slope of fluorescence intensity change over time) [1, 17] | rate of activity (slope of fluorescence intensity change over time) [1, 18] | rate of activity (slope of fluorescence intensity change over time) [1, 19] | rate of activity (slope of fluorescence intensity change over time) [1, 20] | rate of activity (slope of fluorescence intensity change over time) [1, 21] | rate of activity (slope of fluorescence intensity change over time) [1, 22] | IC50 [1, 23] [µM] | IC50 [1, 24] [µM] | also measured |
| --- | --- | --- | --- | --- | --- | --- | --- | --- | --- | --- | --- | --- | --- | --- | --- | --- | --- | --- | --- | --- |
| O=c1[nH]c(NCc2ccc3c(c2)OC(F)(F)O3)nc2c(F)nn(CCO)c12 [ACX-801, 5-(((2,2-difluorobenzo[d][1,3]dioxol-5-yl)methyl)amino)-3-fluoro-1-(2-hydroxyethyl)-1,6-dihydro-7H-pyrazolo[4,3-d]pyrimidin-7-one] | 16.9 and 13.9 and 11.9 | 8.8 and 10.0 | 8.5 and 6.8 and 7.4 | 6.9 and 3.4 and 4.8 | 9.5 and 6.4 and 6.3 | 3.9 and 4.0 and 3.8 | 1.2 (2×) and 2.5 | 0.4 and -0.11 and -1.5 | -0.534 and -0.6 and -2.3 | -1.1 and -0.9 and -1.0 | 39.9 and 41.9 | 37.2 and 42.3 and 40.2 | 36.3 and 36.1 | 30.8 and 32.5 and 32.0 | 23.4 and 22.7 and 23.0 | 23.6 and 23.3 and 21.3 | 11.8 and 10.7 and 11.9 | 5.8 | 11.7 ± 1.1 | rate of activity (slope of fluorescence intensity change over time) ([1]; Fig. 4b source data, PolC (Exonull), inhibitor 30 uM): 6.7 and 7.0 and 4.9 |
| O=c1[nH]c(NCc2ccc(Cl)c(Cl)c2)nc2ncn(CCN3CCOCC3)c12 [IBZ, N^2-(3,4-dichlorobenzyl)-7-(2-[1-morpholinyl]ethyl)guanine] | 31.9 and 18.7 and 16.2 | 28.6 and 14.0 | 24.9 and 15.1 and 11.5 | 19.6 and 9.9 and 9.1 | 18.4 and 12.8 and 8.3 | 8.2 and 4.7 | 9.1 and 5.5 and 3.7 | 6.8 and 2.9 and 1.6 | 4.7 and 1.7 and -0.348 | -0.9 and -0.439 and 1.4 | 34.5 and 33.9 and 33.6 | 31.8 and 30.8 | 27.4 and 24.3 | 19.3 and 20.4 | 12.7 and 13.8 | 8.9 and 8.1 and 9.9 | 4.0 and 3.7 and 2.8 | 12.3 | 4.7 ± 0.3 | recurrence of CDI during the post-treatment study period [2]: no recurrence was observed; solubility [3]: low; absorption [4]: poorly absorbed; faecal levels [4]: > 1000 μg/g stool; MIC [5]: 64 µg/mL |
| CC(=O)NC[C@H]1CN(c2ccc(N3CCOCC3)c(F)c2)C(=O)O1 [LZD, linezolid] |  |  |  |  |  |  |  |  |  |  |  |  |  |  |  |  |  |  |  | CFU total count (48h) (E. faecium ATCC 700221; 1x MIC (ACX-728 2, ACX-641 0.5, ACX-671 1, ACX-763 4, Linezolid 2 mg/L), inoculum 1.3E+07 CFU/plate): TMTC; CFU total count (48h) (E. faecium ATCC 700221; 1x MIC (ACX-728 2, ACX-641 0.5, ACX-671 1, ACX-763 4, Linezolid 2 mg/L), inoculum 1.3E+08 CFU/plate): TMTC; CFU total count (48h) (E. faecium ATCC 700221; 2x MIC (ACX-728 4, ACX-641 1, ACX-671 2, ACX-763 8, Linezolid 4 mg/L), inoculum 1.3E+07 CFU/plate): TMTC; CFU total count (48h) (E. faecium ATCC 700221; 2x MIC (ACX-728 4, ACX-641 1, ACX-671 2, ACX-763 8, Linezolid 4 mg/L), inoculum 1.3E+08 CFU/plate): TMTC; CFU total count (48h) (E. faecium ATCC 700221; 4x MIC (ACX-728 8, ACX-641 2, ACX-671 4, ACX-763 16, Linezolid 8 mg/L), inoculum 1.3E+07 CFU/plate): TMTC; CFU total count (48h) (E. faecium ATCC 700221; 4x MIC (ACX-728 8, ACX-641 2, ACX-671 4, ACX-763 16, Linezolid 8 mg/L), inoculum 1.3E+08 CFU/plate): TMTC; CFU total count (48h) (E. faecium ATCC 700221; 8x MIC (ACX-728 16, ACX-641 4, ACX-671 8, ACX-763 32, Linezolid 16 mg/L), inoculum 1.3E+07 CFU/plate): TMTC; CFU total count (48h) (E. faecium ATCC 700221; 8x MIC (ACX-728 16, ACX-641 4, ACX-671 8, ACX-763 32, Linezolid 16 mg/L), inoculum 1.3E+08 CFU/plate): TMTC; CFU total count (48h) (E. faecium ATCC 700221; 16x MIC (ACX-728 32, ACX-641 8, ACX-671 16, ACX-763 64, Linezolid 32 mg/L), inoculum 1.3E+07 CFU/plate): TMTC; CFU total count (48h) (E. faecium ATCC 700221; 16x MIC (ACX-728 32, ACX-641 8, ACX-671 16, ACX-763 64, Linezolid 32 mg/L), inoculum 1.3E+08 CFU/plate): TMTC; Number of reduced susceptible colonies (E. faecium ATCC 700221; Fold MIC 2, 1.3E+07 cells plated): TMTC; Number of reduced susceptible colonies (E. faecium ATCC 700221; Fold MIC 2, 1.3E+08 cells plated): TMTC; Number of reduced susceptible colonies (E. faecium ATCC 700221; Fold MIC 4, 1.3E+07 cells plated): TMTC; Number of reduced susceptible colonies (E. faecium ATCC 700221; Fold MIC 4, 1.3E+08 cells plated): TMTC; Number of reduced susceptible colonies (E. faecium ATCC 700221; Fold MIC 8, 1.3E+07 cells plated): TMTC; Number of reduced susceptible colonies (E. faecium ATCC 700221; Fold MIC 8, 1.3E+08 cells plated): TMTC; Number of reduced susceptible colonies (E. faecium ATCC 700221; Fold MIC 16, 1.3E+07 cells plated): TMTC; Number of reduced susceptible colonies (E. faecium ATCC 700221; Fold MIC 16, 1.3E+08 cells plated): TMTC |

Reference: paper PMC12592400, “A unique inhibitor conformation selectively targets the DNA polymerase PolC of Gram-positive priority pathogens” (Nature Communications, 2025)
